Reference: patent US4677100A, “Cephalosporin derivatives” (Banyu Pharmaceutical Co., Ltd., priority 1984, dated 1987)
In brackets after ≈: the same amount, converted by molar mass.

Key:
P. maltophilia IID 1275 = assay: MIC, agar plate dilution method; type: cell-based, Pseudomonas maltophilia; details: for MIC: Stenotrophomonas maltophilia, IID1275, P. maltophilia IID 1275, 10^6 CFU/ml, Sensitivity Disk Agar, read-out: Minimum Inhibitory Concentration
Method: (§1) The minimum inhibitory concentrations (MIC: μg/ml) of the compounds of the present invention against various microorganisms were measured by an agar plate dilution method (inoculum size: 10^6 CFU/ml) by using Sensitivity Disk Agar (Nissui) in comparison with Cefotaxime and Ceftazidime as comparative compounds.

E. coli Juhl = assay: treatment of experimental infection of mice; type: in vivo
P. aeruginosa AKR17 = assay: MIC, agar plate dilution method; type: cell-based, Pseudomonas aeruginosa; details: for antibacterial activity relative to the compound of Reference Example: Pseudomonas aeruginosa AKR-17, resistant to all cephalosporins including Ceftazidime; for MIC: Pseudomonas aeruginosa, P. aeruginosa AKR17, 10^6 CFU/ml, Sensitivity Disk Agar, read-out: Minimum Inhibitory Concentration
Method: as §1

P. aeruginosa AK109 = assay: MIC, agar plate dilution method; type: cell-based, Pseudomonas aeruginosa; details: for antibacterial activity relative to the compound of Reference Example: Pseudomonas aeruginosa AK109; for MIC: Pseudomonas aeruginosa, P. aeruginosa AK109, 10^6 CFU/ml, Sensitivity Disk Agar, read-out: Minimum Inhibitory Concentration
Method: as §1

P. aeruginosa D15 = assay: treatment of experimental infection of mice; type: in vivo
S. aureus Smith = assay: treatment of experimental infection of mice; type: in vivo
E. coli C/Rms149 = assay: MIC, agar plate dilution method; type: cell-based; details: Escherichia coli, read-out: Minimum Inhibitory Concentration
Method: as §1

A. calcoaceticus No. 14 = assay: MIC, agar plate dilution method; type: cell-based; details: Acinetobacter calcoaceticus; for MIC: A. calcoaceticus No. 14, 10^6 CFU/ml, Sensitivity Disk Agar, read-out: Minimum Inhibitory Concentration
Method: as §1

P. mirabilis JY10 = assay: MIC, agar plate dilution method; type: cell-based; details: Proteus mirabilis; P. mirabilis JY10; 10^6 CFU/ml; Sensitivity Disk Agar; read-out: Minimum Inhibitory Concentration
Method: as §1

E. cloaceae Nek 39 = assay: MIC, agar plate dilution method; type: cell-based; details: E. cloaceae Nek 39; 10^6 CFU/ml; Sensitivity Disk Agar; read-out: Minimum Inhibitory Concentration
Method: as §1

S. marcescens No. 16-2 = assay: MIC, agar plate dilution method; type: cell-based; details: Serratia marcescens, NO.162; S. marcescens No. 16-2; 10^6 CFU/ml; Sensitivity Disk Agar; read-out: Minimum Inhibitory Concentration
Method: as §1

E. coli W3630/Rms212 = assay: MIC, agar plate dilution method; type: cell-based; details: Escherichia coli, W3630/RMS212, read-out: Minimum Inhibitory Concentration
Method: as §1

E. coli CSH2 = assay: MIC, agar plate dilution method; type: cell-based; details: Escherichia coli, 10^6 CFU/ml, Sensitivity Disk Agar, read-out: Minimum Inhibitory Concentration
Method: as §1

E. coli ML1410/Rte16 = assay: MIC, agar plate dilution method; type: cell-based; details: Escherichia coli, ML1410/RTE16, read-out: Minimum Inhibitory Concentration
Method: as §1

E. coli W3630/Rms213 = assay: MIC, agar plate dilution method; type: cell-based; details: Escherichia coli, W3630/RMS213, read-out: Minimum Inhibitory Concentration
Method: as §1

E. coli CSH = assay: MIC, agar plate dilution method; type: cell-based; details: Escherichia coli, read-out: Minimum Inhibitory Concentration
Method: as §1

S. aureus JS-1 = assay: MIC, agar plate dilution method; type: cell-based; details: Staphylococcus aureus, JS1; S. aureus JS-1; 10^6 CFU/ml; Sensitivity Disk Agar; read-out: Minimum Inhibitory Concentration
Method: as §1

P. vulgaris OB1043 = assay: MIC, agar plate dilution method; type: cell-based; details: Proteus vulgaris; P. vulgaris OB1043; 10^6 CFU/ml; Sensitivity Disk Agar; read-out: Minimum Inhibitory Concentration
Method: as §1

K. pneumoniae No. 42 = assay: MIC, agar plate dilution method; type: cell-based; details: Klebsiella pneumoniae; K. pneumoniae No. 42; 10^6 CFU/ml; Sensitivity Disk Agar; read-out: Minimum Inhibitory Concentration
Method: as §1

E. coli NIHJJC-2 = assay: MIC, agar plate dilution method; type: cell-based; details: Escherichia coli, NIHJJC2; E. coli NIHJJC-2; 10^6 CFU/ml; Sensitivity Disk Agar; read-out: Minimum Inhibitory Concentration
Method: as §1

S. aureus NIHJJC-1 = assay: MIC, agar plate dilution method; type: cell-based; details: Staphylococcus aureus, NIHJJC1; S. aureus NIHJJC-1; 10^6 CFU/ml; Sensitivity Disk Agar; read-out: Minimum Inhibitory Concentration
Method: as §1

C. freundii No. 7 = assay: MIC, agar plate dilution method; type: cell-based; details: Citrobacter freundii; C. freundii No. 7; 10^6 CFU/ml; Sensitivity Disk Agar; read-out: Minimum Inhibitory Concentration
Method: as §1

P. vulgaris No. 33 = assay: MIC, agar plate dilution method; type: cell-based; details: Proteus vulgaris; P. vulgaris No. 33; 10^6 CFU/ml; Sensitivity Disk Agar; read-out: Minimum Inhibitory Concentration
Method: as §1

[1] = test system: Gram-positive bacteria and Gram-negative bacteria; assay: antibacterial activity, general statement; type: cell-based; details: sensitive and resistant bacteria
Method: as §1

P. cepacia 23 = assay: MIC, agar plate dilution method; type: cell-based, Pseudomonas cepacia; details: for MIC: Burkholderia cepacia, P. cepacia 23, 10^6 CFU/ml, Sensitivity Disk Agar, read-out: Minimum Inhibitory Concentration; for antibacterial activity relative to the compound of Reference Example: Pseudomonas cepacia 23
Method: as §1

Row | SMILES | MIC (P. maltophilia IID 1275) [µg/mL] | antibacterial activity relative to the compound of Reference Example (P. aeruginosa AKR17) | MIC (P. aeruginosa AKR17) [µg/mL] | antibacterial activity relative to the compound of Reference Example (P. aeruginosa AK109) | MIC (P. aeruginosa AK109) [µg/mL] | MIC (E. coli C/Rms149) [µg/mL] | antibacterial activity relative to the compound of Reference Example (A. calcoaceticus No. 14) | MIC (A. calcoaceticus No. 14) [µg/mL] | MIC (P. mirabilis JY10) [µg/mL] | MIC (E. cloaceae Nek 39) [µg/mL] | MIC (S. marcescens No. 16-2) [µg/mL] | MIC (E. coli W3630/Rms212) [µg/mL] | MIC (E. coli CSH2) [µg/mL] | MIC (E. coli ML1410/Rte16) [µg/mL] | MIC (E. coli W3630/Rms213) [µg/mL] | MIC (E. coli CSH) [µg/mL] | MIC (S. aureus JS-1) [µg/mL] | MIC (P. vulgaris OB1043) [µg/mL] | MIC (K. pneumoniae No. 42) [µg/mL] | MIC (E. coli NIHJJC-2) [µg/mL] | other results
1 | CON=C(C(=O)NC1C(=O)N2C(C(=O)[O-])=C(C[N+]3(C)Cc4cc(O)c(O)cc4C3)CSC12)c1csc(N)n1 (centres unmarked) [Ex. 4-D, 7-[(Z)-2-(2-aminothiazol-4-yl)-2-methoxyiminoacetamido]-3-(5,6-dihydroxy-2-methyl-2-isoindolinium)methyl-3-cephem-4-carboxylate] | 25 (≈ 44.6 µM) | at least 32 times | 0.78 (≈ 1.39 µM) | at least 16 times | 0.1 (≈ 0.178 µM) | 0.1 (≈ 0.178 µM) | at least 32 times | 0.2 (≈ 0.357 µM) | 0.39 (≈ 0.696 µM) | ≤ 0.05 | 6.25 (≈ 11.1 µM) | ≤ 0.05 | 0.2 (≈ 0.357 µM) | 0.1 (≈ 0.178 µM) | 0.78 (≈ 1.39 µM) | 1.56 (≈ 2.78 µM) | 25 (≈ 44.6 µM) | 3.12 (≈ 5.57 µM) | 0.2 (≈ 0.357 µM) | ≤ 0.05 | ED50 (E. coli Juhl; Escherichia coli, mice infected with E. coli Juhl, read-out: ED50): 0.12 mg/kg; efficacy relative to Ceftazidime (E. coli Juhl; experimental infections of mice caused by E. coli Juhl): about twice as high; ED50 (P. aeruginosa D15; Pseudomonas aeruginosa, mice infected with P. aeruginosa D15, read-out: ED50): 14 mg/kg; efficacy relative to Ceftazidime (P. aeruginosa D15; experimental infections of mice caused by P. aeruginosa D15): about twice as high; ED50 (S. aureus Smith; Staphylococcus aureus, mice infected with S. aureus Smith, read-out: ED50): 6.2 mg/kg; efficacy relative to Ceftazidime (S. aureus Smith; experimental infections of mice caused by S. aureus Smith): about twice as high; MIC (S. aureus NIHJJC-1): 6.25 µg/mL (≈ 11.1 µM); MIC (C. freundii No. 7): 6.25 µg/mL (≈ 11.1 µM); MIC (P. vulgaris No. 33): 0.78 µg/mL (≈ 1.39 µM); antibacterial activity (in words) [1]: particularly strong antibacterial activities; MIC (P. cepacia 23): 0.2 µg/mL (≈ 0.357 µM); antibacterial activity relative to the compound of Reference Example (P. cepacia 23): at least 32 times
2 | C[N+]1(CC2=C(C(=O)[O-])N3C(=O)C(NC(=O)C(=NOC4CCCC4)c4csc(N)n4)C3SC2)Cc2cc(O)c(O)cc2C1 (centres unmarked) [Ex. 13-D, 7-[(Z)-2-(2-aminothiazol-4-yl)-2-cyclopentyloxyiminoacetamido]-3-(5,6-dihydroxy-2-methyl-2-isoindolinium)methyl-3-cephem-4-carboxylate] | 12.5 (≈ 20.3 µM) | at least 32 times | 0.39 (≈ 0.634 µM) | at least 16 times | 0.05 (≈ 0.0813 µM) | 0.05 (≈ 0.0813 µM) | at least 32 times | 0.78 (≈ 1.27 µM) | 0.05 (≈ 0.0813 µM) | 0.05 (≈ 0.0813 µM) | 0.78 (≈ 1.27 µM) | 0.025 (≈ 0.0407 µM) | 0.1 (≈ 0.163 µM) | 0.05 (≈ 0.0813 µM) | 0.05 (≈ 0.0813 µM) | 0.1 (≈ 0.163 µM) | 12.5 (≈ 20.3 µM) | 0.2 (≈ 0.325 µM) | 0.1 (≈ 0.163 µM) | 0.05 (≈ 0.0813 µM) | antibacterial activity relative to the compound of Reference Example (P. maltophilia IID 1275; Pseudomonas maltophilia resistant to all cephalosporins): at least twice as strong; MIC (S. aureus NIHJJC-1): 3.12 µg/mL (≈ 5.08 µM); MIC (C. freundii No. 7): 1.56 µg/mL (≈ 2.54 µM); MIC (P. vulgaris No. 33): 0.1 µg/mL (≈ 0.163 µM); antibacterial activity (in words) [1]: particularly strong antibacterial activities; MIC (P. cepacia 23): 0.1 µg/mL (≈ 0.163 µM); antibacterial activity relative to the compound of Reference Example (P. cepacia 23): at least 32 times
